Patent US8754217B2, “Nalmefene hydrochloride dihydrate” (H. Lundbeck A/S, priority 2008, dated 2014)
Counter-ions that a name gives are not always drawn.

Assays:
[1] = DVS (Dynamic Vapour Sorption) experiments, hygroscopicity; format: physicochemical
Experimental: As shown in Example 1 of the present invention, DVS (Dynamic Vapour Sorption) experiments were performed at 25° C. and at 40° C. […] In contrast hereto, as shown in Example 2, Nalmefene hydrochloride as monohydrate absorbed about 2.5% water when exposed to 95% RH and 40° C.
DVS experiments were performed at 25° C. and at 40° C. The dihydrate is retained at relative humidity of 10-95%. Adsorption to the surface at high relative humidity is less than 0.2%. Desorption of the crystal water occurs slowly under 10% RH.
DVS experiments were performed at 25° C. and at 40° C. The shape of the curves was the same, only the curve at 40° C. is shown (FIG. 5).
Most of the water of hydration (4%) was absorbed at 10% RH. […] The amounts here are given as % weigh increase relative to dry, thus the weight gain corresponding to monohydrate was 4.8% and a 1.5 hydrate corresponds to a gain of 7.2%.

[2] = Particle size by Laser Diffraction (Malvern Mastersizer S); format: physicochemical; settings: Example 3 batch, mineral oil as dispergent
Experimental: In the present context, particle sizes are determined by Laser Diffraction using a Malvern Mastersizer S instrument as disclosed in details in the introductory part of the experimental section.
In the present context, particle sizes are determined by Laser Diffraction using a Malvern Mastersizer S instrument made up of a laser transmitter (LASER HELIUM-NEON-wavelength 632 nm), an optical system (300 F lens, range 0.5-900 μm), a measurement cell for suspension (beam length 2.4 mm) and a photodiode detector. The sample is analysed using mineral oil (CAS 8042-47) as dispergent.
The particle size of the so obtained Nalmefene hydrochloride dihydrate was determined by Laser Diffraction using a Malvern Mastersizer S instrument.

[3] = Brittain, Analytical Profiles of Drug Substances and Excipients (1996); cited from earlier work
[4] = Solubility in aqueous solutions; format: physicochemical
Excerpt: To recover any unused Nalmefene hydrochloride from the methods I or II, outlined above, a method for the recovery has been developed that comprises • (i) optionally, distillation of mother liquors obtained from method (I) or (II) • (ii) basification of the mother liquors obtained in step (i), or from the methods (I) or (II), • (iii) extracting the mixture with a suitable organic solvent, • (iv) adding hydrogen chloride, and • (v) isolating the formed solid

Structure (SMILES): C=C1CC[C@@]2(O)[C@H]3Cc4ccc(O)c5c4[C@@]2(CCN3CC2CC2)[C@H]1O5 [Nalmefene hydrochloride dihydrate]
- relative humidity at which the hydrate is retained ([1]; DVS at 25° C. and 40° C.): 10-95%
- relative humidity under which desorption of the crystal water occurs slowly ([1]; DVS at 25° C. and 40° C.): under 10 % RH
- adsorption to the surface at high relative humidity ([1]; DVS at 25° C. and 40° C., high relative humidity): less than 0.2%
- water absorbed at 95% RH ([1]; DVS at 25° C. and at 40° C., 95% RH): no water was absorbed
- rehydration after drying at 0% RH ([1]; DVS-curve, crystal lattice retained): complete rehydration
- hygroscopicity (in words) ([1]; hydrochloride dihydrate): non-hygroscopic
- particle size D10 [2]: 14 μm
- particle size D50 [2]: 122 μm
- particle size D90 [2]: 287 μm

Structure (SMILES): C=C1CC[C@@]2(O)[C@H]3Cc4ccc(O)c5c4[C@@]2(CCN3CC2CC2)[C@H]1O5 [Nalmefene hydrochloride monohydrate]
- water absorbed when exposed to 95% RH and 40° C. ([1]; 95% RH, 40° C.): about 2.5%
- weight increase relative to dry at 10% RH ([1]; DVS, 10% RH): 4%
- weight increase relative to dry at 50% RH ([1]; DVS, 50% RH): 4.3%
- weight increase relative to dry at 60% RH ([1]; DVS, 60% RH): 6.9%
- weight increase relative to dry at 95% RH ([1]; DVS, 95% RH): 7.3%
- RH above which the form changed into a new structure with higher water content ([1]; DVS, Example 2): above 50%
- hygroscopicity (in words) ([1]; listed as Nalmefene hydrochloride as a monohydrate, hydrochloride monohydrate): hygroscopic
- adventitious moisture sorbed [3]: up to 1%

Structure (SMILES): C=C1CC[C@@]2(O)[C@H]3Cc4ccc(O)c5c4[C@@]2(CCN3CC2CC2)[C@H]1O5 [Nalmefene hydrochloride, 17-(cyclopropylmethyl)-4,5-α-epoxy-6-methylenemorphinan-3,14-diol hydrochloride]
- solubility in aqueous solutions such as water [4]: highly soluble
